BindingDB's records for doi:10.7270/Q2N014XN (Srmlsc, 2007)

Each compound was assayed against T1, Diphosphomevalonate decarboxylase (Streptococcus pneumoniae serotype 2 (strain D39 / NCTC 7466), UniProt A0A0H2ZN59) (assay: S. pneumoniae DPM-DC inhibitor potency, dose response, biochemical, PK/LDH-coupled NADH fluorescence, hexokinase coupling counter-screen (AID 550)). Settings: not given.
T1 sequence (A0A0H2ZN59 whole entry): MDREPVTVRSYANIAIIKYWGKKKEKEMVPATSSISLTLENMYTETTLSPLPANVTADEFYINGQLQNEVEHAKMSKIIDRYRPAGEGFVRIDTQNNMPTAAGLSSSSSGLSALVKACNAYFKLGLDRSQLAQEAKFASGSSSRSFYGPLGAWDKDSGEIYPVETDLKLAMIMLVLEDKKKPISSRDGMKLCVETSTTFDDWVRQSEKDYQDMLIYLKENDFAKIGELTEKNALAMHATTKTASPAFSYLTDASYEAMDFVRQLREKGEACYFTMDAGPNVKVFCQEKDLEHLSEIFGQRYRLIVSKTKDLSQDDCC

| Structure (SMILES) | IC50 |
| --- | --- |
| CCOC(=O)CSc1cc(=O)n(C)c2cc(Cl)ccc12 [2-[(7-chloro-1-methyl-2-oxo-4-quinolinyl)thio]acetic acid ethyl ester] | > 10000 µM |
| CCOC(=O)c1sc2nc(SCC(=O)NCc3ccco3)n(Cc3ccccc3)c(=O)c2c1C [2-[[2-(2-furanylmethylamino)-2-oxoethyl]thio]-5-methyl-4-oxo-3-(phenylmethyl)-6-thieno[2,3-d]pyrimidinecarboxylic acid ethyl ester] | 84.7 µM |
| COC(=O)c1ccccc1NC(=O)c1ccc2c(c1)C(=O)N(Cc1ccco1)C2=O [2-[[2-(2-furfuryl)-1,3-diketo-isoindoline-5-carbonyl]amino]benzoic acid methyl ester] | 53.9 µM |
| C=C(C)Cn1c(COc2ccccc2)nnc1SCC(=O)O [2-[[4-(2-methylallyl)-5-(phenoxymethyl)-1,2,4-triazol-3-yl]thio]acetic acid] | > 10000 µM |
| Cc1ccc2nc(-c3ccc(SCC(=O)O)nc3)[nH]c2c1 [2-[[5-(6-methyl-1H-benzimidazol-2-yl)-2-pyridinyl]thio]acetic acid] | 9.87 µM |
| OCCNc1ncnc2c1c(-c1ccccc1)c(-c1ccccc1)n2Cc1ccco1 [2-[[7-(2-furanylmethyl)-5,6-diphenyl-4-pyrrolo[2,3-d]pyrimidinyl]amino]ethanol] | > 10000 µM |
| CC(C)(O)P(C)(=O)c1ccccc1 (centres undefined) [2-[methyl(phenyl)phosphoryl]-2-propanol] | > 10000 µM |
| Nc1c(C(=O)NCCN2CCOCC2)c2nc3ccccc3nc2n1-c1ccc2c(c1)OCO2 [2-amino-1-(1,3-benzodioxol-5-yl)-N-(2-morpholin-4-ylethyl)pyrrolo[3,2-b]quinoxaline-3-carboxamide] | 87.4 µM |
| Nc1c(C(=O)NC2CCCC2)c2nc3ccccc3nc2n1N=Cc1cccnc1 [2-amino-N-cyclopentyl-1-(3-pyridinylmethylideneamino)-3-pyrrolo[3,2-b]quinoxalinecarboxamide] | 17.1 µM |
| Cc1ccc(S(=O)(=O)c2cc3c(=O)n4ccccc4nc3n(CC3CCCO3)c2=N)cc1C (centres undefined) [2-azanylidene-3-(3,4-dimethylphenyl)sulfonyl-1-(oxolan-2-ylmethyl)dipyrido[1,2-d:3',4'-f]pyrimidin-5-one] | 43.6 µM |
| CCOC(=O)C(Cc1ccccc1)C(=O)Nc1nccs1 (centres undefined) [2-benzyl-3-keto-3-(thiazol-2-ylamino)propionic acid ethyl ester] | > 10000 µM |
| N#CC(C(=O)NC1CCCCC1)c1nc2ccccc2nc1N1CCCCC1 (centres undefined) [2-cyano-N-cyclohexyl-2-(3-piperidin-1-ylquinoxalin-2-yl)acetamide] | > 10000 µM |
| CCOc1ncccc1C(=O)Nc1ccc2c(C)cc(=O)oc2c1 [2-ethoxy-N-(2-keto-4-methyl-chromen-7-yl)nicotinamide] | > 10000 µM |
| Cn1c(SCC(=O)N2CCOCC2)nnc1-c1ccc(NC(=O)c2ccccc2F)cc1 [2-fluoranyl-N-[4-[4-methyl-5-(2-morpholin-4-yl-2-oxidanylidene-ethyl)sulfanyl-1,2,4-triazol-3-yl]phenyl]benzamide] | > 10000 µM |
| CCOC(=O)c1c(CC(C)C)csc1NC=O [2-formamido-4-(2-methylpropyl)-3-thiophenecarboxylic acid ethyl ester] | > 10000 µM |
| COc1ccc(-c2nsc3c(N4CCN(C(=O)c5ccco5)CC4)ncnc23)cc1 [2-furanyl-[4-[3-(4-methoxyphenyl)-7-isothiazolo[4,5-d]pyrimidinyl]-1-piperazinyl]methanone] | 131 µM |
| CCOC(=O)c1cc2c(=O)n3cccc(C)c3nc2n(CCc2ccccc2)c1=N [2-imino-10-methyl-5-oxo-1-(2-phenylethyl)-3-dipyrido[3,4-c:1',2'-f]pyrimidinecarboxylic acid ethyl ester] | 27.2 µM |
| CCOC(=O)c1cc2c(=O)n3ccccc3nc2n(C(C)C)/c1=N\C(=O)c1ccncc1 [2-isonicotinoylimino-1-isopropyl-5-keto-dipyrido[1,2-d:3',4'-f]pyrimidine-3-carboxylic acid ethyl ester] | 15.2 µM |
| COCCOC(=O)c1c(C)oc2ccc(NS(=O)(=O)c3ccc(F)cc3)cc12 [2-methoxyethyl 5-[(4-fluorophenyl)sulfonylamino]-2-methyl-1-benzofuran-3-carboxylate] | > 10000 µM |
| Cc1occc1C(=O)Nc1nnc(C(F)(F)F)s1 [2-methyl-N-[5-(trifluoromethyl)-1,3,4-thiadiazol-2-yl]-3-furamide] | > 10000 µM |
| CC(C)(C)CC(=O)Nc1nnc(-c2cccs2)s1 [3,3-Dimethyl-N-(5-thiophen-2-yl-[1,3,4]thiadiazol-2-yl)-butyramide] | > 10000 µM |
| CC(C)c1nc(NCC2CCCO2)c(C#N)c2c1COC(C)(C)C2 (centres undefined) [3,3-dimethyl-6-(2-oxolanylmethylamino)-8-propan-2-yl-1,4-dihydropyrano[3,4-c]pyridine-5-carbonitrile] | 9.97 µM |

| Structure (SMILES) | IC50 |
| --- | --- |
| Cc1ccc(S(=O)(=O)NCCN2CCOCC2)cc1C [3,4-Dimethyl-N-(2-morpholin-4-yl-ethyl)-benzenesulfonamide] | > 10000 µM |
| COc1ccc(C(=O)NCc2cn3c(C)csc3n2)cc1OC [3,4-dimethoxy-N-[(3-methyl-6-imidazo[2,1-b]thiazolyl)methyl]benzamide] | > 10000 µM |
| N#Cc1c(NCCO)nc(NCc2ccccc2)c2c1CCN(Cc1ccccc1)C2 [3-(2-hydroxyethylamino)-7-(phenylmethyl)-1-[(phenylmethyl)amino]-6,8-dihydro-5H-2,7-naphthyridine-4-carbonitrile] | 38.6 µM |
| COc1ccc(-c2coc3cc(O)ccc3c2=O)cc1OC [3-(3,4-dimethoxyphenyl)-7-hydroxy-1-benzopyran-4-one] | 19 µM |
| Clc1c(-c2nnc3n2CCC3)sc2ccccc12 [3-(3-chloranyl-1-benzothiophen-2-yl)-6,7-dihydro-5H-pyrrolo[2,1-c][1,2,4]triazole] | > 10000 µM |
| COc1ccc(-n2nc(C(=O)NCc3ccco3)c3c4ccccc4n(C)c3c2=O)cc1Cl [3-(3-chloranyl-4-methoxy-phenyl)-N-(furan-2-ylmethyl)-5-methyl-4-oxidanylidene-pyridazino[4,5-b]indole-1-carboxamide] | 15.1 µM |
| N#Cc1c(NCCCO)nc(NCc2ccccc2)c2c1CCN(Cc1ccccc1)C2 [3-(3-hydroxypropylamino)-7-(phenylmethyl)-1-[(phenylmethyl)amino]-6,8-dihydro-5H-2,7-naphthyridine-4-carbonitrile] | 39.1 µM |
| O=C(Nc1ccc(F)cc1)N(CCCN1CCOCC1)Cc1cc2cc3c(cc2[nH]c1=O)OCO3 [3-(4-fluorophenyl)-1-[3-(4-morpholinyl)propyl]-1-[(6-oxo-5H-[1,3]dioxolo[4,5-g]quinolin-7-yl)methyl]urea] | 17.6 µM |
| Cc1ccc(NC(=O)N(CCCN2CCOCC2)Cc2cc3cc4c(cc3[nH]c2=O)OCO4)cc1 [3-(4-methylphenyl)-1-(3-morpholin-4-ylpropyl)-1-[(6-oxidanylidene-5H-[1,3]dioxolo[4,5-g]quinolin-7-yl)methyl]urea] | 45.6 µM |
| O=C(O)CCn1nnc(-c2cccs2)n1 [3-(5-Thiophen-2-yl-tetrazol-2-yl)-propionic acid] | > 10000 µM |
| Nc1c(C(=O)NC2CCCC2)sc2nc(-c3cccs3)ccc12 [3-Amino-6-thiophen-2-yl-thieno[2,3-b]pyridine-2-carboxylic acid cyclopentylamide] | 172 µM |
| Cc1c(C(=O)OCC(C)(C)CN(C)C)oc2ccccc12 [3-Methyl-benzofuran-2-carboxylic acid 3-dimethylamino-2,2-dimethyl-propyl ester] | > 10000 µM |
| COc1ccc(-c2cc(C(F)(F)F)nc(SCCC(=O)Nc3cc(C)on3)n2)cc1 [3-[4-(4-Methoxy-phenyl)-6-trifluoromethyl-pyrimidin-2-ylsulfanyl]-N-(5-methyl-isoxazol-3-yl)-propionamide] | > 10000 µM |
| CCOc1nc(-c2ccccc2)ccc1-c1noc(-c2ccc(OC)c(OC)c2)n1 [3-[5-(3,4-Dimethoxy-phenyl)-[1,2,4]oxadiazol-3-yl]-2-ethoxy-6-phenyl-pyridine] | > 10000 µM |
| CN(C)Cc1nc2ccccc2c(=O)n1Cc1nc(-c2cc3ccccc3o2)cs1 [3-[[4-(1-benzofuran-2-yl)-1,3-thiazol-2-yl]methyl]-2-[(dimethylamino)methyl]quinazolin-4-one] | > 10000 µM |
| COc1ccc(-c2c3c(nc4sc(C(=O)Nc5cc(C)on5)c(N)c24)CCC3)cc1 [3-amino-4-(4-methoxyphenyl)-N-(5-methyl-3-isoxazolyl)-6,7-dihydro-5H-cyclopenta[b]thieno[3,2-e]pyridine-2-carboxamide] | 8.33 µM |
| COC(=O)c1sc2nc(-c3ccco3)ccc2c1N [3-amino-6-(2-furanyl)-2-thieno[2,3-b]pyridinecarboxylic acid methyl ester] | 28.7 µM |
| O=C(NC1CCCCC1)N(CCN1CCCC1)Cc1cc2cc3c(cc2[nH]c1=O)OCCO3 [3-cyclohexyl-1-[(7-oxo-3,6-dihydro-2H-[1,4]dioxino[2,3-g]quinolin-8-yl)methyl]-1-[2-(1-pyrrolidinyl)ethyl]urea] | 15 µM |
| CCOC(=O)CC(=O)CSc1ccc2nnc(-c3ccc(C)cc3)n2n1 [3-keto-4-[[3-(p-tolyl)-[1,2,4]triazolo[4,3-b]pyridazin-6-yl]thio]butyric acid ethyl ester] | 287 µM |
| COc1cccc(C(=O)Nc2ccc(NC(=O)C(C)C)nc2)c1 [3-methoxy-N-[6-(2-methylpropanoylamino)pyridin-3-yl]benzamide] | > 10000 µM |
| Cc1c(C(=O)NCC2CCCO2)sc2nc(-c3ccccc3)cn12 (centres undefined) [3-methyl-6-phenyl-N-(tetrahydrofurfuryl)imidazo[2,1-b]thiazole-2-carboxamide] | > 10000 µM |

Same assay, conditions: inactive by the depositor's call

| Structure (SMILES) | IC50 |
| --- | --- |
| Nc1cc(C(=O)O)ccc1Nc1ccccc1 [3-amino-4-anilino-benzoic acid] | 120 µM |
